Data on two compounds can be found in BindingDB's records for doi:10.1016/j.ejmech.2018.10.038 (Universities of Shandong, 2019).

Series [1] is described as follows: Reversal of P-gp-mediated multidrug resistance in human KBV cells assessed as potentiation of paclitaxel-induced cytotoxicity by measuring paclitaxel IC50 at 5 uM after 72 hrs by MTT assay (Rvb = 1353.98 +/- 303.33 nM). Background: Tetrazolium dyes change colour on reduction, which living cells bring about.
Series [2] in a line: Reversal of P-gp-mediated multidrug resistance in human KBV cells assessed as potentiation of paclitaxel-induced cytotoxicity by measuring paclitaxel IC50 at 10 uM after 72 hrs by MTT assay (Rvb = 1353.98 +/- 303.33 nM).

By IC50 is commonly meant the midpoint of a concentration-inhibition curve. As to `CC(C)(O)[C@H]1CC[C@@](C)([C@H]2CC[C@]3(C)[C@@H]2[C@H](O)C[C@@H]2[C@@]4(C)CC[C@H](N)C(C)(C)[C@@H]4CC[C@]23C)O1`, the IC50 in series [1] was found to be 0.135 µM; in series [2], 0.048 µM.
The like results for `CC(C)(C)OC(=O)NCCCCCC(=O)N[C@H]1CC[C@]2(C)[C@H]3C[C@@H](O)[C@@H]4[C@@H]([C@]5(C)CC[C@H](C(C)(C)O)O5)CC[C@@]4(C)[C@]3(C)CC[C@H]2C1(C)C` were, in that order, 0.048 µM and 0.028 µM.
